Assay: Water solubility
Details: in 100 g of water at 25° C., 24 hours, visual evaluation
Description: As used herein, the term “solubility” used herein in regard to water solubility includes cases where the sample completely dissolves in deionized water to form a homogeneous mixture, and cases where the sample is completely emulsified. As used herein, “completely” means that none of the sample remains in the deionized water.

## CCCCC(CC)C(=O)OCC(C)(C)COC(=O)C(CC)CCCC (centres unmarked) [H-208BRS, Neopentylglycol di(2-ethylhexanoate)]
Table 2
  Water solubility: <0.05 g
Table 3
  Water solubility: <0.05 g
